In PubChem BioAssay (NCI):
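These data come from cells grown in 96-well plates and exposed to compound for 48 hours at five concentrations. Definition used: TGI = concentration required for complete inhibition of growth.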

Tests used:
Assay in all cases: growth of human tumour cells (NCI), 48 h
UACC-257 melanoma = system: UACC-257 melanoma
IGROV1 ovarian = system: IGROV1 ovarian
UACC-62 melanoma = system: UACC-62 melanoma
MDA-MB-435 = system: MDA-MB-435
MDA-MB-231 breast = system: MDA-MB-231 breast
OVCAR-8 ovarian = system: OVCAR-8 ovarian
TK-10 renal = system: TK-10 renal
A549 NSCLC = system: A549 NSCLC
OVCAR-4 ovarian = system: OVCAR-4 ovarian
HL-60(TB) leukemia = system: HL-60(TB) leukemia
NCI-H23 lung = system: NCI-H23 lung
T-47D breast = system: T-47D breast
CAKI-1 renal = system: CAKI-1 renal
SF-268 CNS = system: SF-268 CNS
COLO 205 colon = system: COLO 205 colon
SK-MEL-2 melanoma = system: SK-MEL-2 melanoma
UO-31 renal = system: UO-31 renal
HS 578T breast = system: HS 578T breast
OVCAR-5 ovarian = system: OVCAR-5 ovarian
MALME-3M melanoma = system: MALME-3M melanoma

Row | Compound | TGI (UACC-257 melanoma) [µM] | TGI (IGROV1 ovarian) [µM] | TGI (UACC-62 melanoma) [µM] | TGI (MDA-MB-435) [µM] | TGI (MDA-MB-231 breast) [µM] | TGI (OVCAR-8 ovarian) [µM] | TGI (TK-10 renal) [µM] | TGI (A549 NSCLC) [µM] | TGI (OVCAR-4 ovarian) [µM] | TGI (HL-60(TB) leukemia) [µM] | TGI (NCI-H23 lung) [µM] | TGI (T-47D breast) [µM] | TGI (CAKI-1 renal) [µM] | TGI (SF-268 CNS) [µM] | TGI (COLO 205 colon) [µM] | TGI (SK-MEL-2 melanoma) [µM] | TGI (UO-31 renal) [µM] | TGI (HS 578T breast) [µM] | TGI (OVCAR-5 ovarian) [µM] | TGI (MALME-3M melanoma) [µM]
1 | COc1ccc(/C=C2\CCS(=O)(=O)c3ccccc3C2=O)cc1OC | > 100 | 72.1 | 76.6 | > 100 | > 100 | 43.5 | > 100 | > 100 | 71.5 | 70 | > 100 | > 100 | > 100 | > 100 | > 100 | > 100 | > 100 | > 100 | > 100 | –
2 | O=C(CCCCCC(=O)N1CC(CCl)c2ccc([N+](=O)[O-])cc21)N1CC(CCl)c2ccc([N+](=O)[O-])cc21 (configuration not stated) | > 100 | > 100 | > 100 | > 100 | > 100 | > 100 | > 100 | – | > 100 | > 100 | > 100 | > 100 | > 100 | > 100 | > 100 | > 100 | > 100 | > 100 | > 100 | –
3 | CCCCCCCCCCCCc1ccc(S(=O)(=O)O)cc1.[Zn+2] | > 100 | 77.2 | > 100 | > 100 | > 100 | > 100 | > 100 | > 100 | > 100 | > 100 | > 100 | > 100 | > 100 | > 100 | > 100 | – | > 100 | > 100 | > 100 | > 100
4 | CCOC(=O)C(CC(C)C)NC(=O)CSc1nnc(COc2ccc(Cl)cc2)n1-c1ccccc1 (configuration not stated) | 23.2 | 29.2 | 30.7 | 35.6 | 30.6 | – | 33.1 | 45.9 | 36.2 | 43.4 | 29.5 | 45.3 | – | 35.6 | 36.2 | 30 | 3.68 | 60.9 | 39.4 | 37.8
5 | O=C(CCC(=O)CC(O)(C(F)(F)F)C(F)(F)F)CC(O)(C(F)(F)F)C(F)(F)F | > 100 | > 100 | > 100 | > 100 | > 100 | > 100 | > 100 | > 100 | > 100 | 91.2 | 95.8 | > 100 | – | > 100 | 96.3 | – | 59.3 | > 100 | > 100 | > 100
6 | CCCCCc1cc2cc3c(c(O)c2c(=O)[nH]1)C1(CCC3)C(O)=c2c(=O)c3c(=O)cc(OC)c(=O)c=3c(=O)c2=C1O (configuration not stated) | 4.64 | 3.48 | 3.29 | 3.13 | 4.28 | 3.25 | – | 3.53 | 4.44 | 1.24 | 3.37 | 2.76 | 2.8 | 3.63 | 0.564 | 3.68 | 1.94 | 5.42 | 4.47 | 2.95
7 | CCCCCCCC(CC(=O)NC(CO)C(=O)NC(CO)CC(C)C)OC(=O)CC(CCCCCCC)OC(=O)CC(CCCCCCC)OC1OC(C)C(O)C(OC2OC(C)C(O)C(O)C2OC(C)=O)C1O (configuration not stated) | 13.5 | 23 | 18.6 | 13.8 | 21.5 | 22.4 | 26 | 25.9 | 19.9 | 10.4 | 22 | 21 | 28.3 | 21.2 | 5.47 | – | 30.7 | 19.1 | 21.9 | 23.2
8 | O=c1c2c3c(sc2nc2n1N=C(c1ccc(Cl)cc1)CS2)CCCC3 | > 100 | > 100 | > 100 | > 100 | > 100 | > 100 | > 100 | > 100 | > 100 | > 100 | > 100 | > 100 | > 100 | > 100 | > 100 | – | > 100 | > 100 | > 100 | > 100
9 | COC(=O)CCc1ccc2c(c1)C(=O)CC2 | > 100 | > 100 | – | > 100 | > 100 | > 100 | > 100 | > 100 | > 100 | > 100 | > 100 | > 100 | – | > 100 | – | > 100 | > 100 | > 100 | > 100 | > 100
10 | O=C(c1ccccc1)n1cc(-c2ccccc2)c2c(=O)[nH]cnc21 | > 100 | > 100 | > 100 | > 100 | > 100 | > 100 | > 100 | > 100 | > 100 | – | > 100 | > 100 | > 100 | > 100 | > 100 | > 100 | > 100 | > 100 | > 100 | > 100
11 | NNc1nncc2[nH]cnc12 | > 100 | > 100 | > 100 | > 100 | > 100 | > 100 | > 100 | > 100 | – | > 100 | > 100 | > 100 | > 100 | > 100 | > 100 | > 100 | > 100 | > 100 | > 100 | –
12 | O=C1c2ccccc2C(=O)c2sc(Nc3ccccc3C(F)(F)F)nc21 | 32.4 | 34.5 | 29.7 | 16 | 16.1 | – | 35.7 | 57.2 | – | 17.7 | 42.8 | 44.5 | 21.1 | 30.1 | 27.8 | 25.2 | 25.2 | 48.2 | 44.6 | 29.9
13 | COc1cc(O)c2c(=O)c3c(C)cccc3n(C)c2c1 | > 10 | > 10 | > 10 | > 10 | > 10 | > 10 | > 10 | > 10 | > 10 | – | > 10 | > 10 | > 10 | > 10 | > 10 | > 10 | > 10 | > 10 | > 10 | > 10
14 | O=[N+]([O-])c1ccc(N/N=C/CC(O)(C(F)(F)F)C(F)(F)F)c([N+](=O)[O-])c1 | > 10 | > 10 | > 10 | > 10 | > 10 | > 10 | > 10 | > 10 | > 10 | > 10 | > 10 | > 10 | > 10 | > 10 | > 10 | 6.64 | > 10 | 8.16 | – | > 10
15 | Cc1cn(CCCCCCC2=NCCCN2)c(=O)[nH]c1=O | > 100 | > 100 | > 100 | > 100 | > 100 | > 100 | > 100 | > 100 | > 100 | – | > 100 | > 100 | > 100 | > 100 | > 100 | > 100 | > 100 | > 100 | > 100 | > 100
16 | CSCCCS/C1=C/CCCCCCCCCC1 | > 100 | > 100 | > 100 | > 100 | > 100 | – | > 100 | > 100 | > 100 | > 100 | > 100 | > 100 | > 100 | > 100 | > 100 | > 100 | > 100 | > 100 | > 100 | > 100
17 | O=C(NC1CCCCC1)c1cc2ccccc2cc1O | > 100 | > 100 | > 100 | > 100 | > 100 | 67.9 | > 100 | – | > 100 | 96.1 | – | > 100 | > 100 | > 100 | > 100 | 44.7 | 99 | 97.8 | – | –
18 | COC(OC)C1OCC(n2cc(F)c(=O)[nH]c2=O)C1O (configuration not stated) | > 100 | > 100 | > 100 | > 100 | > 100 | > 100 | > 100 | > 100 | > 100 | – | > 100 | > 100 | > 100 | > 100 | > 100 | > 100 | > 100 | > 100 | > 100 | > 100
19 | COc1cc2cc(C(=O)N3CC(CCl)c4c3cc(NC(=O)OCc3ccc([N+](=O)[O-])cc3)c3ccccc43)[nH]c2c(OC)c1OC (configuration not stated) | > 100 | > 90 | > 100 | > 100 | > 81.5 | > 100 | – | > 100 | > 100 | > 38.5 | > 45.4 | > 100 | > 39.4 | > 81.2 | > 100 | > 100 | 0.516 | > 100 | > 100 | > 100
20 | COc1ccc(NC(=O)CC(=O)n2nc(C)c(N=Nc3cccc(C)c3)c2C)cc1 | – | – | > 100 | > 100 | > 100 | > 100 | > 100 | > 100 | > 100 | > 100 | > 100 | > 100 | > 100 | > 100 | > 100 | > 100 | > 100 | > 100 | > 100 | > 100
21 | CC(C)CCCC(C)[C@H]1CC[C@H]2[C@@H]3CC[C@H]4C[C@@H](CCC=C(c5cc(Cl)c(O)c(C(=O)OC(C)C)c5)c5cc(Cl)c(O)c(C(=O)OC(C)C)c5)CC[C@]4(C)[C@H]3CC[C@]12C (some centres not stated) | – | > 50 | > 50 | > 50 | > 50 | > 50 | – | > 50 | > 50 | > 50 | > 50 | > 50 | > 50 | > 50 | > 50 | > 50 | – | > 50 | > 50 | –
22 | C(/Cc1ccc2c(c1)OCO2)=N\NC1=NCCN1 | > 100 | > 100 | > 100 | > 100 | > 100 | > 100 | > 100 | > 100 | > 100 | > 100 | > 100 | > 100 | – | > 100 | > 100 | > 100 | > 100 | > 100 | > 100 | > 100
23 | CCCC(O)c1cn(C(NC(=O)c2ccccc2)P(=O)(OCC)OCC)nn1 (configuration not stated) | > 100 | > 100 | > 100 | > 100 | > 100 | > 100 | > 100 | > 100 | > 100 | > 100 | > 100 | > 100 | > 100 | > 100 | > 100 | > 100 | > 100 | > 100 | – | > 100
24 | CCOC(=O)c1c(-c2ccc(Cl)cc2)c(C#N)c(=S)n(C2OC(COC(C)=O)C(OC(C)=O)C(OC(C)=O)C2OC(C)=O)c1-c1ccccc1 (configuration not stated) | > 100 | > 100 | > 100 | > 100 | > 100 | – | > 100 | > 100 | > 100 | > 100 | > 100 | > 100 | > 100 | > 100 | > 100 | > 100 | > 100 | > 100 | > 100 | > 100
